Results as given in PMC6499206, “Quantification of Volatile Metabolites Derived From Garlic (Allium sativum) in Human Urine” (Frontiers in Nutrition, 2019).

Test: Quantification of garlic-derived metabolites in human urine after ingestion of 3 g raw garlic (SIDA, SAFE, HRGC-MS / HRGC-GC-MS)
Type: in vivo
Conditions: 3 g raw garlic
Text: Human urine samples were obtained from 18 volunteers (age 22–38 years, mean 27 years; 11 females, 7 males); thereby, one volunteer conducted the whole experimental series twice. At the time of examination, volunteers reported no known illness that might have potentially influenced the metabolism or the excretion of urine. The test persons were instructed to avoid foods that were rich in sulfur-containing substances at the testing day as well as 2 days preceding the testing day, namely garlic, onion, wild garlic, chives, cabbage, and leek, and were only allowed to consume the garlic sample provided in the course of the experiments. Additionally, subjects were asked to keep records of the food (including food supplements) and beverages they consumed during these 3 testing days. Generally, the overall panelists' requirements were in accordance with our previous studies ([5], [16]).
On the sampling day, the outer garlic cloves of a whole garlic bulb were peeled and cut into ~3 mm cubes by using a garlic cutter (Genius GmbH, Limburg/Lahn, Germany). Subsequently these cubes were thoroughly mixed and aliquoted into 3 g portions. Three to four test persons conducted the experiment at the same day. Each test person was asked to ingest a garlic portion of 3 g. In total, eight consecutive urine samples were provided by each test person, comprising one whole urine set. The samples were collected in sterile brown glass bottles, with sampling times as follows: one sample was provided directly prior to garlic consumption. The series of the second to eighth sample was then obtained at about 0.5, 1, 2, 4, 6, 8, and 24 h after garlic consumption, respectively. Between the first urine sample (prior to garlic consumption) and the seventh urine sample (8 h after garlic consumption) test persons only spent urine at the specific time points mentioned before. Another sample was provided at the next morning (24 h after garlic consumption). Between the samples provided 8 and 24 h after garlic consumption no urine was collected. All samples were immediately placed into a −80°C freezer and were kept frozen until further analysis.
The samples of each set were termed according to their sampling time. The following list provides the time intervals that are related to the respective sample name: • - pre: before garlic consumption • - 0.5 h post: 0.4–0.8 h after garlic consumption • - 1 h post: 0.9–1.3 h after garlic consumption • - 2 h post: 1.8 h−2.2 h after garlic consumption • - 4 h post: 3.8–4.4 h after garlic consumption • - 6 h post: 5.8–6.4 h after garlic consumption • - 8 h post: 7.8–8.4 h after garlic consumption • - 24 h post: 23.8–25.6 h after garlic consumption
A creatinine kit (Labor+Technik Eberhard Lehmann GmbH, Berlin, Germany) was used to determine the creatinine content in each urine sample. The determination principle of this kit is based on the reaction of creatinine with picric acid under basic conditions (Jaffé reaction). The formed complex was detected photometrically at a wavelength of 492 nm.
For quantification purposes, the deuterated standards ^2H3-AMS, ^2H3-AMSO, and ^2H3-AMSO2 were added to the sample and stirred for 10 min. Subsequently, DCM was added in a ratio of 1:2 (DCM/human urine; v/v) and this solution was stirred for further 30 min at room temperature. To isolate the volatile fraction from the urine samples we then applied SAFE-distillation ([17]), thereby distilling the respective samples at 50°C. After completion of the distillation process, 10 mL of DCM were applied in each case to rinse the SAFE apparatus and to ensure complete transition of the volatile compounds. This process was repeated with another 10 mL of DCM. After thawing, the obtained aqueous distillate phase was extracted three times with 25 mL DCM. The organic phases were combined, dried over anhydrous Na2SO4 and concentrated to a total volume of 100 μL by means of Vigreux distillation and subsequent micro-distillation at 50°C. […]

metabolite concentration in urine (U VII, 1 h post (1.08 h)): 125.9 µg/kg
metabolite concentration in urine, creatinine-normalized (U VII, 1 h post (1.08 h)): 78.0 µg/mmol creatinine
metabolite concentration in urine (U VII, 2 h post (2.00 h)): 139.9 µg/kg
metabolite concentration in urine, creatinine-normalized (U VII, 2 h post (2.00 h)): 143.4 µg/mmol creatinine
metabolite concentration in urine (U VII, 4 h post (4.00 h)): 170.5 µg/kg
metabolite concentration in urine, creatinine-normalized (U VII, 4 h post (4.00 h)): 105.6 µg/mmol creatinine
metabolite concentration in urine (U VII, 6 h post (6.00 h)): 203.6 µg/kg
metabolite concentration in urine, creatinine-normalized (U VII, 6 h post (6.00 h)): 65.5 µg/mmol creatinine
metabolite concentration in urine (U VII, 8 h post (8.00 h)): 147.2 µg/kg
metabolite concentration in urine, creatinine-normalized (U VII, 8 h post (8.00 h)): 75.5 µg/mmol creatinine
metabolite concentration in urine (U VII, 24 h post (24.00 h)): 15.7 µg/kg
metabolite concentration in urine, creatinine-normalized (U VII, 24 h post (24.00 h)): 4.2 µg/mmol creatinine
metabolite concentration in urine (U VII, pre (-0.25 h)): 7.0 µg/kg
metabolite concentration in urine, creatinine-normalized (U VII, pre (-0.25 h)): 2.0 µg/mmol creatinine
metabolite concentration in urine (U VIII, 0.5 h post (0.52 h)): 112.9 µg/kg
metabolite concentration in urine, creatinine-normalized (U VIII, 0.5 h post (0.52 h)): 143.6 µg/mmol creatinine
metabolite concentration in urine (U VIII, 1 h post (1.08 h)): 256.0 µg/kg
metabolite concentration in urine, creatinine-normalized (U VIII, 1 h post (1.08 h)): 154.0 µg/mmol creatinine
metabolite concentration in urine (U VIII, 2 h post (2.08 h)): 301.1 µg/kg
metabolite concentration in urine, creatinine-normalized (U VIII, 2 h post (2.08 h)): 284.7 µg/mmol creatinine
metabolite concentration in urine (U VIII, 4 h post (4.07 h)): 322.0 µg/kg
metabolite concentration in urine, creatinine-normalized (U VIII, 4 h post (4.07 h)): 152.2 µg/mmol creatinine
metabolite concentration in urine (U VIII, 6 h post (6.08 h)): 348.3 µg/kg
metabolite concentration in urine, creatinine-normalized (U VIII, 6 h post (6.08 h)): 92.2 µg/mmol creatinine
metabolite concentration in urine (U VIII, 8 h post (7.90 h)): 255.0 µg/kg
metabolite concentration in urine, creatinine-normalized (U VIII, 8 h post (7.90 h)): 92.7 µg/mmol creatinine
metabolite concentration in urine (U VIII, 24 h post (23.83 h)): 48.3 µg/kg
metabolite concentration in urine, creatinine-normalized (U VIII, 24 h post (23.83 h)): 18.1 µg/mmol creatinine
metabolite concentration in urine (U VIII, pre (-0.33 h)): 97.6 µg/kg
metabolite concentration in urine, creatinine-normalized (U VIII, pre (-0.33 h)): 21.82 µg/mmol creatinine
metabolite concentration in urine (U X, 0.5 h post (0.53 h)): 15.5 µg/kg
metabolite concentration in urine, creatinine-normalized (U X, 0.5 h post (0.53 h)): 8.0 µg/mmol creatinine
metabolite concentration in urine (U X, 1 h post (1.03 h)): 27.7 µg/kg
metabolite concentration in urine, creatinine-normalized (U X, 1 h post (1.03 h)): 35.2 µg/mmol creatinine
metabolite concentration in urine (U X, 2 h post (2.03 h)): 48.6 µg/kg
metabolite concentration in urine, creatinine-normalized (U X, 2 h post (2.03 h)): 72.3 µg/mmol creatinine
metabolite concentration in urine (U X, 4 h post (3.85 h)): 79.1 µg/kg
metabolite concentration in urine, creatinine-normalized (U X, 4 h post (3.85 h)): 60.1 µg/mmol creatinine
metabolite concentration in urine (U X, 6 h post (5.80 h)): 89.3 µg/kg
metabolite concentration in urine, creatinine-normalized (U X, 6 h post (5.80 h)): 37.7 µg/mmol creatinine
metabolite concentration in urine (U X, 8 h post (7.75 h)): 85.2 µg/kg
metabolite concentration in urine, creatinine-normalized (U X, 8 h post (7.75 h)): 36.5 µg/mmol creatinine
metabolite concentration in urine (U X, 24 h post (23.97 h)): 53.0 µg/kg
metabolite concentration in urine, creatinine-normalized (U X, 24 h post (23.97 h)): 4.9 µg/mmol creatinine
metabolite concentration in urine (U X, pre (-0.07 h)): < LOD^3
metabolite concentration in urine, creatinine-normalized (U X, pre (-0.07 h)): < LOD^3
metabolite concentration in urine (U XI, 0.5 h post (0.50 h)): 27.5 µg/kg
metabolite concentration in urine, creatinine-normalized (U XI, 0.5 h post (0.50 h)): 33.4 µg/mmol creatinine
metabolite concentration in urine (U XI, 1 h post (1.02 h)): 65.7 µg/kg
metabolite concentration in urine, creatinine-normalized (U XI, 1 h post (1.02 h)): 82.6 µg/mmol creatinine
metabolite concentration in urine (U XI, 2 h post (2.00 h)): 93.5 µg/kg
metabolite concentration in urine, creatinine-normalized (U XI, 2 h post (2.00 h)): 122.1 µg/mmol creatinine
metabolite concentration in urine (U XI, pre (-0.08 h)): 9.0 µg/kg
metabolite concentration in urine, creatinine-normalized (U XI, pre (-0.08 h)): 2.6 µg/mmol creatinine
metabolite concentration in urine (U XII, 0.5 h post (0.48 h)): 17.3 µg/kg
metabolite concentration in urine, creatinine-normalized (U XII, 0.5 h post (0.48 h)): 2.3 µg/mmol creatinine
metabolite concentration in urine (U XII, 1 h post (1.03 h)): 33.1 µg/kg
metabolite concentration in urine, creatinine-normalized (U XII, 1 h post (1.03 h)): 33.6 µg/mmol creatinine
Structure (SMILES): C=CCS(C)(=O)=O [AMSO2, allyl methyl sulfone]
